Key:
Beta-secretase 1 = Beta-secretase 1 (Homo sapiens, UniProt P56817); experiment: Inhibition of human recombinant BACE1 by spectrofluorimetric method
Acetylcholinesterase = Acetylcholinesterase (Homo sapiens, UniProt P22303); experiment: Inhibition of human recombinant AChE by Ellman method
Acetylcholinesterase, sequence (P22303 whole entry): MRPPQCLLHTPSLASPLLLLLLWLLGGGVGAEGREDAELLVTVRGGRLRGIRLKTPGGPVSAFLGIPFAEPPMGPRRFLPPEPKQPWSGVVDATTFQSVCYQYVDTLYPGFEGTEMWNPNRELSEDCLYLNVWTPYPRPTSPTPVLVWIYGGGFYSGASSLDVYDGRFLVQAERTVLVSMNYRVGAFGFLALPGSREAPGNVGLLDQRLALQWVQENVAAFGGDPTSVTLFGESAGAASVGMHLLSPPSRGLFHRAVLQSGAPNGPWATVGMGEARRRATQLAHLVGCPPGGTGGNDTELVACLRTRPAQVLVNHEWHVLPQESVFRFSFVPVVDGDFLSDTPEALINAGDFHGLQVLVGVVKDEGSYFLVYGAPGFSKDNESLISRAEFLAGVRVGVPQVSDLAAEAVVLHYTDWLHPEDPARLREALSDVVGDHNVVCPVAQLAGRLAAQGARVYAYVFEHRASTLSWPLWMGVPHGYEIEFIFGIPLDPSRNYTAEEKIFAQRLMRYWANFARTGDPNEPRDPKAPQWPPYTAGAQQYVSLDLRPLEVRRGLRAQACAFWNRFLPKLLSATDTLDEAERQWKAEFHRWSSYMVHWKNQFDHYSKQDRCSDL

Beta-secretase 1, sequence (P56817 whole entry): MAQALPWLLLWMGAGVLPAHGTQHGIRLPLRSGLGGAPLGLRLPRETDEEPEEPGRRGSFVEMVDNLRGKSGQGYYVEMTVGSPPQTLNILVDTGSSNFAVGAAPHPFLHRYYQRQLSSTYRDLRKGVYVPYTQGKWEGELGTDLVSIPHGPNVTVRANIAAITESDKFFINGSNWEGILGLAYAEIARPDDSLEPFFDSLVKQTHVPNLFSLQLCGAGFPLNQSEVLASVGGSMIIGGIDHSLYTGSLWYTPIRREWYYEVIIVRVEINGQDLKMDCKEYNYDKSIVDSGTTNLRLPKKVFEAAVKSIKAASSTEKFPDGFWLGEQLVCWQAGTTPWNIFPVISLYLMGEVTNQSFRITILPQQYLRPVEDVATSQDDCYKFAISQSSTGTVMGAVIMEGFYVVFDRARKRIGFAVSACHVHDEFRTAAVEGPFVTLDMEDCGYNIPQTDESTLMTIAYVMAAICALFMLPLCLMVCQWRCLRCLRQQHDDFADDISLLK

Row | SMILES | IC50 (Beta-secretase 1) | IC50 (Acetylcholinesterase)
1 | CCN(Cc1ccccc1)Cc1ccc(-c2cc3ccc(OCCNC(=O)Cc4cc(F)cc(F)c4)cc3oc2=O)cc1 | 0.15 µM | 0.181 µM
2 | CCN(Cc1ccccc1)Cc1ccc(-c2cc3ccc(OCCNC(=O)/C=C/c4cc(F)cc(F)c4)cc3oc2=O)cc1 | 0.121 µM | 4.57 µM
3 | CCN(Cc1ccccc1)Cc1ccc(-c2cc3cc(OCCNC(=O)Cc4cc(F)cc(F)c4)ccc3oc2=O)cc1 | 0.149 µM | 0.551 µM
4 | CCN(Cc1ccccc1)Cc1ccc(-c2cc3cc(OCCNC(=O)/C=C/c4cc(F)cc(F)c4)ccc3oc2=O)cc1 | 0.099 µM | 7.16 µM
5 | CCN(Cc1ccccc1)Cc1ccc(-c2cc3ccc(OCCNC(=O)CCc4ccc(F)c(F)c4)cc3oc2=O)cc1 | 0.114 µM | 0.327 µM
6 | CCN(Cc1ccccc1)Cc1ccc(-c2cc3cc(OCCNC(=O)CCc4ccc(F)c(F)c4)ccc3oc2=O)cc1 | 0.116 µM | 2.77 µM
7 | CCN(Cc1ccccc1)Cc1ccc(-c2cc3ccc(OCCNC(=O)/C=C/c4ccc(Cl)c(Cl)c4)cc3oc2=O)cc1 | 0.151 µM | 4.23 µM
8 | CCN(Cc1ccccc1)Cc1ccc(-c2cc3cc(OCCNC(=O)/C=C/c4ccc(Cl)c(Cl)c4)ccc3oc2=O)cc1 | 0.133 µM | 267 µM
